IC50 and GI50 data for 8 compounds are collected here from article PMC9848300, “Discovery of novel enasidenib analogues targeting inhibition of mutant isocitrate dehydrogenase 2 as antileukaemic agents” (Journal of Enzyme Inhibition and Medicinal Chemistry, 2023).

Numbering of substitutions follows the chain as printed.

One assay relates to IDH2 R140Q. The conditions noted are these: Figure 2; cited from earlier work.
The subject of the next assay is UACC-62. The assay can be described thus: NCI 60 antitumor screening (single dose / five doses). Type of assay: cell-based. The conditions noted are these: Homo sapiens, UACC-62.
The subject of another assay is UO-31. The description is as above. Type of assay: cell-based. The settings on record: Homo sapiens, UO-31.
Another assay has as its system CCRF-CEM. The assay is described as above. It counts as cell-based. The settings on record: Homo sapiens, CCRF-CEM.
The test system of another assay is SF-295. The description is as above. The conditions noted are these: Homo sapiens, SF-295. It counts as cell-based.
The test system of a further assay is SNB-75. The assay is described as above. Type of assay: cell-based. The settings on record: Homo sapiens, SNB-75.
For another assay, the system named is SF-539. Described as above. It counts as cell-based. The conditions noted are these: Homo sapiens, SF-539.
The test system of the next assay is NCI/ADR-RES. The assay is described as above. The settings on record: Homo sapiens, NCI/ADR-RES. It counts as cell-based.
The next assay addresses T1, IDH2^R140Q (Homo sapiens, UniProt P48735, R140Q).
T1 sequence (P48735 40-452 R140Q): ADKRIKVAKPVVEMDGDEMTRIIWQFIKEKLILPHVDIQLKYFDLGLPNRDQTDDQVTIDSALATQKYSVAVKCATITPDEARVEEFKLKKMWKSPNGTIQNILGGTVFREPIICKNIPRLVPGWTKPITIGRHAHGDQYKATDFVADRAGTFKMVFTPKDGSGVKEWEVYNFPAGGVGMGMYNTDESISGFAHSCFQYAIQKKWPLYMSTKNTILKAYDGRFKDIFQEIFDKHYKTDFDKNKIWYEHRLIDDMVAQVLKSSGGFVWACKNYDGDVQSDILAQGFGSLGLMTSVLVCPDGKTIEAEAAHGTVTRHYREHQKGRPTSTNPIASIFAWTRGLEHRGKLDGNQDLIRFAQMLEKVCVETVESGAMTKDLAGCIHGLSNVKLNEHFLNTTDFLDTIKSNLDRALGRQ
The assay can be described thus: biochemical.

The next assay deals with ACHN. The assay can be described thus: NCI 60 antitumor screening (single dose / five doses). The conditions noted are these: Homo sapiens, ACHN. Type of assay: cell-based.
The test system of another assay is BT-549. The assay is described as above. It counts as cell-based. The conditions noted are these: Homo sapiens, BT-549.
A further assay deals with HL-60(TB). The assay is described as above. It counts as cell-based. The conditions noted are these: Homo sapiens, HL-60.
For a further assay, the system named is T-47D. Described as above. It counts as cell-based. The conditions noted are these: Homo sapiens, T47D.
Another assay addresses T2, wild type IDH2 (Homo sapiens, UniProt P48735).
T2 sequence (P48735 40-452): T1 sequence (P48735 40-452 R140Q) with Q101R
The assay can be described thus: IDH2 enzyme inhibition assay (wild type IDH Assay Kit).

The test system of another assay is 786-0. The assay can be described thus: NCI 60 antitumor screening (single dose / five doses). It counts as cell-based. The conditions noted are these: Homo sapiens, 786-0.
A further assay relates to IGROV1. The description is as above. The settings on record: Homo sapiens, IGROV-1. Type of assay: cell-based.
For the next assay, the system named is LOX IMVI. The description is as above. The conditions noted are these: Homo sapiens, LOX IMVI. It counts as cell-based.
The next assay concerns MALME-3M. The description is as above. Type of assay: cell-based. The settings on record: Homo sapiens, Malme-3M.
Another assay deals with DU-145. The assay is described as above. It counts as cell-based. The conditions noted are these: Homo sapiens, DU-145.
The subject of the next assay is HCT-15. Described as above. It counts as cell-based. The conditions noted are these: Homo sapiens, HCT-15.
The next assay concerns SN 12C. The description is as above. Type of assay: cell-based. The conditions noted are these: Homo sapiens, SN12C.
Another assay has as its system MDA-MB-468. Described as above. Type of assay: cell-based. The conditions noted are these: Homo sapiens, MDA-MB-468.
A further assay has as its system MDA-MB-435. Described as above. It counts as cell-based. The conditions noted are these: Homo sapiens, MDA-MB-435.
The next assay concerns HT29. Described as above. It counts as cell-based, human. The conditions noted are these: Homo sapiens, HT-29.
For a further assay, the system named is MDA-MB-231/ATCC. Described as above. The settings on record: Homo sapiens, MDA-MB-231. Type of assay: cell-based.
Another assay deals with SK-MEL-5. The assay is described as above. Type of assay: cell-based. The conditions noted are these: Homo sapiens, SK-MEL-5.
The test system of the next assay is A498. Described as above. Type of assay: cell-based. The settings on record: Homo sapiens, A498.
In the next assay the test system is UACC-257. The description is as above. It counts as cell-based. The settings on record: Homo sapiens, UACC-257.
The next assay deals with K-562. The assay is described as above. It counts as cell-based. The conditions noted are these: Homo sapiens, K562.
For the next assay, the system named is COLO 205. The assay is described as above. It counts as cell-based. The settings on record: Homo sapiens, COLO 205.
The next assay deals with RPMI-8226. The description is as above. Type of assay: cell-based. The conditions noted are these: Homo sapiens, RPMI-8226.
The subject of another assay is SR. The assay is described as above. It counts as cell-based. The settings on record: Homo sapiens, SR.
The subject of the next assay is HCT-116. The assay is described as above. It counts as cell-based. The settings on record: Homo sapiens, HCT-116.
The test system of another assay is EKVX. Described as above. Type of assay: cell-based. The settings on record: Homo sapiens, EKVX.
The next assay has as its system SK-MEL-28. Described as above. The settings on record: Homo sapiens, SK-MEL-28. Type of assay: cell-based.
The test system of a further assay is SW-620. Described as above. Type of assay: cell-based, human. The settings on record: Homo sapiens, SW-620.
Another assay has as its system RXF 393. The assay is described as above. Type of assay: cell-based. The settings on record: Homo sapiens, RXF 393.
In another assay the test system is HOP-92. The assay is described as above. It counts as cell-based. The conditions noted are these: Homo sapiens, HOP-92.
A further assay concerns MOLT-4. Described as above. Type of assay: cell-based. The settings on record: Homo sapiens, MOLT-4.
The next assay concerns IDH1 R132H. The settings on record: Figure 2; cited from earlier work.

For the compound `O=C(Nc1cccc(C(F)(F)F)c1)Nc1cc(S(=O)(=O)NC2CC2)ccc1-c1ccsc1` [AGI-6780], the IC50 in the assay on IDH2 R140Q was 0.023 µM.

As for `Cc1ccc(Cl)cc1NC(=O)Nc1cc(NC(=O)c2ccccc2)ccc1N1CCCC1` [CP-17], the IC50 in the assay on IDH2 R140Q is 0.041 µM.

For the compound `CC(C)(O)CNc1nc(Nc2ccnc(C(F)(F)F)c2)nc(-c2cccc(C(F)(F)F)n2)n1` [Enasidenib], the GI50 is 15.8 µM with UACC-62; 19.9 µM in the assay on UO-31; 19.9 µM in the assay with CCRF-CEM; 15.8 µM in the assay on SF-295; 15.8 µM with SNB-75; 15.8 µM in the assay with SF-539. Besides, the concentration for 50% growth inhibition (GI50) was 15.8 µM with NCI/ADR-RES; 25.1 µM with ACHN; 15.8 µM in the assay on BT-549; 19.9 µM in the assay with HL-60(TB); 15.8 µM with T-47D; 19.9 µM in the assay on 786-0. The concentration for 50% growth inhibition (GI50) worked out at 31.6 µM with IGROV1; 15.8 µM with LOX IMVI; 19.9 µM in the assay on MALME-3M; 19.9 µM with DU-145; 19.9 µM in the assay with HCT-15; 19.9 µM in the assay with SN 12C. Also, the GI50 was 19.9 µM in the assay with MDA-MB-468; 15.8 µM with MDA-MB-435; 15.8 µM in the assay with HT29; 19.9 µM in the assay with MDA-MB-231/ATCC; 12.6 µM in the assay with SK-MEL-5; 15.8 µM in the assay with A498. For the same compound, the 50% growth inhibitory concentration (GI50) in the assay with UACC-257 is 19.9 µM; in the assay with K-562, 31.6 µM; in the assay with COLO 205, 19.9 µM; with RPMI-8226, 19.9 µM; in the assay on SR, 19.9 µM; in the assay on HCT-116, 15.8 µM. In addition, the GI50 was 19.9 µM in the assay on EKVX; 15.8 µM with SK-MEL-28; 25.1 µM with SW-620; 19.9 µM in the assay with RXF 393; 25.1 µM in the assay on HOP-92; 12.6 µM in the assay on MOLT-4. The IC50 was 0.1 µM in the assay with IDH2 R140Q, 0.0755 ± 0.00369 µM on IDH2^R140Q and 2.33 ± 0.09 µM against wild type IDH2.

In the case of `CC(C)Nc1cc(Nc2cccc(C(F)(F)F)n2)nc(-c2cccc(C(F)(F)F)c2)c1` [III], in the assay with IDH2 R140Q, the IC50 was 0.074 µM.

Turning to `CC(C)Nc1cc(Nc2cccc(C(F)(F)F)n2)nc(-c2cccc(Cl)c2)c1` [II], the IC50 with IDH2 R140Q is 0.06 µM.

With `CC(C)Nc1cc(Nc2cc(C(F)(F)F)ccn2)nc(-c2ccccc2)c1` [I], in the assay on IDH2 R140Q, the half-maximal inhibitory concentration (IC50) was 0.055 µM.

Turning to `CC(C)(C)ONc1nc(Nc2ccnc(C(F)(F)F)c2)nc(-c2cccc(C(F)(F)F)n2)n1` [TQ05310], the IC50 with IDH2 R140Q is 0.137 µM.

Turning to `C[C@@H](Nc1nc(N[C@H](C)C(F)(F)F)nc(-c2cccc(Cl)n2)n1)C(F)(F)F` [Vorasidenib], the IC50 in the assay with IDH1 R132H is 0.006 µM.

What is called IC50 is the midpoint of a concentration-inhibition curve. The GI50 is the concentration that inhibits growth by half. Read a low GI50 as greater sensitivity of the cells.
